Laboratory results published in patent US9156845B2, “4-(substituted amino)-7H-pyrrolo[2,3-d] pyrimidines as LRRK2 inhibitors” (Pfizer Inc., priority 2012, dated 2015).
Where a name gives a salt, the structure may show the parent alone.

What was measured:
mutant G2019S LRRK2 = mutant G2019S LRRK2 (Homo sapiens (Human), UniProt Q5S007, G2019S); experiment: LRRK2 Lantha Screen kinase assay, mutant enzyme; assay type: biochemical; settings: geometric mean of 2-5 determinations unless otherwise indicated (a: >=6 determinations; b: single determination)
mutant G2019S LRRK2, sequence (Q5S007 970-2527 G2019S): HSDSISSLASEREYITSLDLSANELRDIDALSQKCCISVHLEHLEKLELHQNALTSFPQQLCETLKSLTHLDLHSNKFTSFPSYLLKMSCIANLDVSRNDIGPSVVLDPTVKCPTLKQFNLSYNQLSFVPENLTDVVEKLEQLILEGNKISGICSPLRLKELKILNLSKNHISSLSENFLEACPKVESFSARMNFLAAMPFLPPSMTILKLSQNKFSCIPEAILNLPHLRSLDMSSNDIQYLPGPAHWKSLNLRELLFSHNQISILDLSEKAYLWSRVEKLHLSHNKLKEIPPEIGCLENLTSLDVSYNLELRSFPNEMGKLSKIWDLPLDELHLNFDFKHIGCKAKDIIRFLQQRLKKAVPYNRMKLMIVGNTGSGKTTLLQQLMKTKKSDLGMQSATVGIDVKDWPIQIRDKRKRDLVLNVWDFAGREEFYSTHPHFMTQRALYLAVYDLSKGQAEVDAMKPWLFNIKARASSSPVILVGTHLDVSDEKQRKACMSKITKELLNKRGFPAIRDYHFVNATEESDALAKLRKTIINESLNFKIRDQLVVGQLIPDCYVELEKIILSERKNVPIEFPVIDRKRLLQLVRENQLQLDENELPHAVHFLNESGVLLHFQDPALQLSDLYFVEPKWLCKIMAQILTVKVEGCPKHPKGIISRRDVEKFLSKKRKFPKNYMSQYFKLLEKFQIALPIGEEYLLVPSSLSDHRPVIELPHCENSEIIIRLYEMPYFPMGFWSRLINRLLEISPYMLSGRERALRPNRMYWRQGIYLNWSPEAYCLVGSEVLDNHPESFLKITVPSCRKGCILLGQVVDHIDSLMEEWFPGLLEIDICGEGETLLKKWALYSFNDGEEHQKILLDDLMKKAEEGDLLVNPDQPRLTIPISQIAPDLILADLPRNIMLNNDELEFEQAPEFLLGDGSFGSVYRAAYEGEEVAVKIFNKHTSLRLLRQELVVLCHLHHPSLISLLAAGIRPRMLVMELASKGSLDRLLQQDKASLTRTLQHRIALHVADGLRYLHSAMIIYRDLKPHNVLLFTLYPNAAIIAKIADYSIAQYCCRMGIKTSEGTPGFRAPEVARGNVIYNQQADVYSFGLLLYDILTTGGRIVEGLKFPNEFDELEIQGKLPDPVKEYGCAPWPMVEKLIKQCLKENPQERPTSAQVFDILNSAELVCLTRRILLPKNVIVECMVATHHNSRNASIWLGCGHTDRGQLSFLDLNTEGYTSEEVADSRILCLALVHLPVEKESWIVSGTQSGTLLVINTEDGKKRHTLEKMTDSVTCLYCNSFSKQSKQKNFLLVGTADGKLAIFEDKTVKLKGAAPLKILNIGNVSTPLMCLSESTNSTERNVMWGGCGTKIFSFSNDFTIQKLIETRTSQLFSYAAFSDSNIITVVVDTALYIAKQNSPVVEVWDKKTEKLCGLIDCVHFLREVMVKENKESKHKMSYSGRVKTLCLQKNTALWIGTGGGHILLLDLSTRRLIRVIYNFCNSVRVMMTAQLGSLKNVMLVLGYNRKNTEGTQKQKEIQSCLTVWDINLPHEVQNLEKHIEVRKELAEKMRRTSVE

[1] = target: GST-tagged truncated LRRK2 (Homo sapiens (Human), UniProt Q5S007); experiment: LRRK2 Lantha Screen kinase assay; assay type: biochemical; settings: geometric mean of 2-5 determinations unless otherwise indicated (a: >=6 determinations; b: single determination); read-out: LRRK2 WT IC50
GST-tagged truncated LRRK2, sequence (Q5S007 970-2527): as the sequence (Q5S007 970-2527 G2019S) above, with S1050G counted along it

| IC50 (mutant G2019S LRRK2) | IC50 [1] | SMILES |
| --- | --- | --- |
| 186 nM | 27.2 nM | N#Cc1cccc(-c2c[nH]c3ncnc(N4CCO[C@H]5CCC[C@H]54)c23)c1 (relative stereo) [Example 208, rel-3-{4-[(4aR,7aS)-hexahydrocyclopenta[b][1,4]oxazin-4(4aH)-yl]-7H-pyrrolo[2,3-d]pyrimidin-5-yl}benzonitrile] |
| 172 nM | 70 nM | CC1CCCN(c2ncnc3[nH]cc(-c4cccc(C#N)c4)c23)C1 (single isomer, unassigned) [Example 41] |
| 102 nM | 21 nM | CC1CCN(c2ncnc3[nH]cc(-c4cccc(C#N)c4)c23)C1 (single isomer, unassigned) [Example 71] |
| 100 nM | 12 nM | COCC1CN(c2ncnc3[nH]cc(-c4cccc(C#N)c4)c23)CCO1 (single isomer, unassigned) [Example 74] |
| 208 nM | 23 nM | N#Cc1cccc(-c2c[nH]c3ncnc(N4CCOC(c5cc[nH]n5)C4)c23)c1 (single isomer, unassigned) [Example 76, 3-{4-[2-(1H-pyrazol-3-yl)morpholin-4-yl]-7H-pyrrolo[2,3-d]pyrimidin-5-yl}benzonitrile] |
| 158 nM | 39 nM | CC1CCN(c2ncnc3[nH]cc(-c4cccc(C#N)c4)c23)C1 (single isomer, unassigned) [Example 77] |
| 245 nM | 214 nM | COCC1CN(c2ncnc3[nH]cc(-c4cccc(C#N)c4)c23)CCO1 (single isomer, unassigned) [Example 197] |
| 95.7 nM | 7.71 nM | Cc1noc(C2CN(c3ncnc4[nH]cc(-c5cccc(C#N)c5F)c34)CCO2)n1 (single isomer, unassigned) [Example 213] |
| 43 nM | 12 nM | Cc1[nH]c2ncnc(N3CCOCC3)c2c1-c1cccc(C#N)c1 [Example 2, 3-[6-Methyl-4-(morpholin-4-yl)-7H-pyrrolo[2,3-d]pyrimidin-5-yl]benzonitrile] |
| 26 nM | 9 nM | N#Cc1cccc(-c2c[nH]c3ncnc(N4CCOCC4)c23)n1 [Example 3, 6-[4-(Morpholin-4-yl)-7H-pyrrolo[2,3-d]pyrimidin-5-yl]pyridine-2-carbonitrile] |
| 15 nM | 5 nM | CN(C)c1ncnc2[nH]cc(-c3cccc(C#N)c3)c12 [Example 5, 3-[4-(Dimethylamino)-7H-pyrrolo[2,3-d]pyrimidin-5-yl]benzonitrile] |
| 37 nM | 7 nM | C[C@H]1CN(c2ncnc3[nH]cc(-c4cccc(C#N)c4)c23)CCO1 [Example 6, 3-{4-[(2S)-2-Methylmorpholin-4-yl]-7H-pyrrolo[2,3-d]pyrimidin-5-yl}benzonitrile] |
| 18 nM | 18 nM | C[C@H]1CCCN(c2ncnc3[nH]cc(-c4cccc(CO)c4)c23)C1 [Example 7, (3-{4-[(3S)-3-Methylpiperidin-1-yl]-7H-pyrrolo[2,3-d]pyrimidin-5-yl}phenyl)methanol] |
| 33 nM | 25 nM | c1nc(N2CCOCC2)c2c(-c3cn[nH]c3)c[nH]c2n1 [Example 8, 4-(Morpholin-4-yl)-5-(1H-pyrazol-4-yl)-7H-pyrrolo[2,3-d]pyrimidine, formate salt] |
| 513 nM | 42 nM | Cc1nc(N2CCOCC2)c2c(-c3cccc(C#N)c3)c[nH]c2n1 [Example 9, 3-[2-Methyl-4-(morpholin-4-yl)-7H-pyrrolo[2,3-d]pyrimidin-5-yl]benzonitrile] |
| 23 nM | 34 nM | CN(C)c1ncnc2[nH]cc(-c3cccc(CO)c3)c12 [Example 10, {3-[4-(Dimethylamino)-7H-pyrrolo[2,3-d]pyrimidin-5-yl]phenyl}methanol] |
| 325 nM | 90 nM | CC1(C)CCCN(c2ncnc3[nH]cc(-c4cccc(C#N)c4)c23)C1 [Example 11, 3-[4-(3,3-dimethylpiperidin-1-yl)-7H-pyrrolo[2,3-d]pyrimidin-5-yl]benzonitrile] |
| 28 nM | 6 nM | N#Cc1cccc(-c2c[nH]c3ncnc(N4CCCCC4)c23)c1 [Example 12, 3-[4-(piperidin-1-yl)-7H-pyrrolo[2,3-d]pyrimidin-5-yl]benzonitrile] |
| 39 nM | 41 nM | NC(=O)C1CCCN(c2ncnc3[nH]cc(-c4ccccc4)c23)C1 (stereo not drawn) [Example 13, 1-(5-phenyl-7H-pyrrolo[2,3-d]pyrimidin-4-yl)piperidine-3-carboxamide] |
| 95 nM | 17 nM | N#Cc1cccc(-c2c[nH]c3ncnc(N4CCC[C@H](O)C4)c23)c1 [Example 14, 3-{4-[(3S)-3-hydroxypiperidin-1-yl]-7H-pyrrolo[2,3-d]pyrimidin-5-yl}benzonitrile] |
| 92 nM | 91 nM | C[C@H]1CCCN(c2ncnc3[nH]cc(-c4ccccc4)c23)C1 [Example 15, 4-[(3S)-3-methylpiperidin-1-yl]-5-phenyl-7H-pyrrolo[2,3-d]pyrimidine] |
| 45 nM | 16 nM | C[C@H]1CCCN(c2ncnc3[nH]cc(-c4cccc(C#N)c4)c23)C1 [Example 16, 3-{4-[(3S)-3-methylpiperidin-1-yl]-7H-pyrrolo[2,3-d]pyrimidin-5-yl}benzonitrile] |
| 12 nM | 14 nM | C[C@H]1CCCN(c2ncnc3[nH]cc(-c4cnn(C)c4)c23)C1 [Example 17, 4-[(3S)-3-methylpiperidin-1-yl]-5-(1-methyl-1H-pyrazol-4-yl)-7H-pyrrolo[2,3-d]pyrimidine] |
| 47 nM | 71 nM | c1ccc(-c2c[nH]c3ncnc(N4CCCC4)c23)cc1 [Example 18, 5-phenyl-4-(pyrrolidin-1-yl)-7H-pyrrolo[2,3-d]pyrimidine] |
| 29 nM | 38 nM | OCC1CCN(c2ncnc3[nH]cc(-c4ccccc4)c23)CC1 [Example 19, [1-(5-phenyl-7H-pyrrolo[2,3-d]pyrimidin-4-yl)piperidin-4-yl]methanol] |
| 31 nM | 56 nM | N#CC1CCCN(c2ncnc3[nH]cc(-c4cccc(CO)c4)c23)C1 (stereo not drawn) [Example 20, 1-{5-[3-(hydroxymethyl)phenyl]-7H-pyrrolo[2,3-d]pyrimidin-4-yl}piperidine-3-carbonitrile] |
| 183 nM | 57 nM | N#Cc1cccc(-c2c[nH]c3ncnc(N4CCCC(C#N)C4)c23)c1 (stereo not drawn) [Example 21, 1-[5-(3-cyanophenyl)-7H-pyrrolo[2,3-d]pyrimidin-4-yl]piperidine-3-carbonitrile] |
| 16 nM | 16 nM | C[C@@H]1C[C@H](C)CN(c2ncnc3[nH]cc(-c4cnn(C)c4)c23)C1 [Example 22, 4-(3,5-cis-dimethylpiperidin-1-yl)-5-(1-methyl-1H-pyrazol-4-yl)-7H-pyrrolo[2,3-d]pyrimidine] |
| 46 nM | 25 nM | COc1ccc(C#N)cc1-c1c[nH]c2ncnc(N3CCCC(C)C3)c12 (stereo not drawn) [Example 23, 4-methoxy-3-[4-(3-methylpiperidin-1-yl)-7H-pyrrolo[2,3-d]pyrimidin-5-yl]benzonitrile] |
| 30 nM | 24 nM | COc1ccc(C#N)cc1-c1c[nH]c2ncnc(N(C)C)c12 [Example 24, 3-[4-(dimethylamino)-7H-pyrrolo[2,3-d]pyrimidin-5-yl]-4-methoxybenzonitrile] |
